{
  "source": "patent US20040258662A1",
  "about": "“Antineoplastic agents” (Wyeth, priority 2003, published 2004)",
  "key": {"[1]": {"experiment": "Stability of CCI-779 in parenteral cosolvent formulation", "format": "physicochemical", "settings": "citric acid at a concentration of less than 0.01% w/v", "excerpt": "In this embodiment, the stability of CCI-779 in parenterally acceptable alcoholic cosolvents is enhanced by addition of an antioxidant to the formulation. Acceptable antioxidants include, but are not limited to, citric acid, d,l-α-tocopherol, BHA, BHT, monothioglycerol, ascorbic acid, propyl gallate, and mixtures thereof. Generally, the parenteral formulations useful in this embodiment of the invention will contain an antioxidant component(s) in a concentration ranging from 0.001% to 1% w/v, or 0.01% to 0.5% w/v, of the cosolvent concentrate, although lower or higher concentrations may be desired. Of the antioxidants, d,l-α-tocopherol is particularly desirable and is used at a concentration of 0.01 to 0.1% w/v with a preferred concentration of 0.075% w/v of the cosolvent concentrate.\nExamples of such chelating agents include, e.g., citric acid, acetic acid, and ascorbic acid (which may function as both a classic antioxidant and a chelating agent in the present formulations). Other chelating agents include such materials as are capable of binding metal ions in solution, such as ethylene diamine tetra acetic acid (EDTA), its salts, or amino acids such as glycine are capable of enhancing the stability of CCI-779. […] Optimal concentrations for the selected antioxidant(s) can be readily determined by one of skill in the art, based upon the information provided herein."}, "[2]": {"tested_on": "human glioblastoma cell line", "settings": "in vitro; cited from earlier work"}, "[3]": {"tested_on": "tumor cells", "settings": "cited from earlier work"}, "[4]": {"tested_on": "advanced RCC", "experiment": "Phase 1 open-label ascending-dose study of CCI-779 plus IFN in RCC patients", "format": "in vivo", "method": "Thus, the combination of CCI-779 and IFN was evaluated in RCC patients (pts) in a phase 1 study.\nIn an open-label, ascending-dose, single-arm study, CCI-779 was given IV once weekly, with IFN given subcutaneously 3 times weekly. IFN was given alone the 1st treatment week. The starting dose levels were 6 million units (MU) IFN and 5 mg CCI-779. CCI-779 dose-escalation steps were 10 mg, 15 mg, and 25 mg. Once the maximum dose of CCI-779 is determined, the dose level of IFN can be escalated to 9 MU (at a reduced CCI-779 dose, if necessary). Dose escalation was based on a safety evaluation of pts (≧6/cohort) after 4 weeks of treatment.\nUp to 40 patients are being evaluated at the maximum tolerated dose (MTD). In summary, 71 pts with advanced RCC were enrolled; 27 continue treatment. Patients (73% men, 27% women) had ECOG performance status of 0: 53% and 1: 46% and median age of 59 yrs (range, 35-80); 45% had prior IL-2 treatment. In dose escalation, patients received 6 MU IFNα with CCI-779 at 5 mg (7 pts), 10 mg (6), 15 mg (6), 20 mg (6), or 25 mg (7); 6 pts also received 9 MU IFNα with 15 mg CCI-779. […] To date, 33 additional patients have been accrued at the MTD. […] CCI-779-related adverse events with overall frequency ≧5% (n=53) were leukopenia (25%), hyperlipidemia (15%), asthenia (13%), AST increase (8%), mucositis (6%), anemia (6%), thrombocytopenia (6%), and rash (6%). Four patients were removed from study due to CCI-779-related toxicity. Approximately 50% of MTD patients have required CCI-779 dose reductions in subsequent cycles. Median time on treatment for all cohorts was 7 mo, 36 have continued for >6 mo of whom 9 have continued for >12 mo. Preliminary tumor responses (RECIST) in 55 pts were confirmed partial response, 7 pts (13%); stable disease, 39 (71%, 19 pts ≧6 mo); and progressive disease, 9 (16%)."}, "[5]": {"tested_on": "human tumor xenografts", "settings": "nude mice, cited from earlier work"}, "[6]": {"tested_on": "HTB-44 human renal tumor", "experiment": "HTB-44 human renal tumor xenograft test procedure in nude mice", "format": "in vivo", "design": "Tumor mass, % of vehicle control, Week 0 / Tumor mass, % of vehicle control, Week 2 / Tumor mass, % of vehicle control, Week 4: concentration or dose not given beside the values", "settings": "for effect on tumor growth (in words): CCI-779 25 mg/kg iv weekly or IFN-α 1 million units ip 3 times per week; for Tumor mass, Week 0 / Tumor mass, Week 2 / Tumor mass, Week 4 / Tumor mass, Week 5: CCI-779 25 mg/kg iv once per week; for Tumor mass, Week 0 / Tumor mass, Week 2 / Tumor mass, Week 4: IFN-α 1 × 10^6 units ip 3 times per week; for Tumor mass, Week 0: 4 weeks, tumors about 600 mg at start; for Tumor mass, % of vehicle control, Week 0 / Tumor mass, % of vehicle control, Week 2 / Tumor mass, % of vehicle control, Week 4 / Tumor mass, % of vehicle control, Week 5: same dosing as the tumor mass values; for Tumor mass, Week 5: IFN-α 1 × 10^6 units ip 3 times per week for 4 weeks", "method": "CCI-779 was evaluated in combination with Interferon-alpha (IFN-α) in the HTB44 human mouse xenograft standard pharmacological test procedure of renal cancer. The human renal cell line HTB-44 (also referred to in the scientific literature as A498) is derived from a patient with a clear cell carcinoma that had lost expression of the von Hippel-Lindau (VHL) gene. These types of tumors are representative of the large majority (≈80%) of sporadic renal cell carcinomas.\nCCI-779 was evaluated as a single agent on a weekly schedule against large (>500mg) HTB-44 tumors in nude mouse xenografts. Dosing was from 10 mg/kg to 75 mg/kg intravenously once a week beginning on day 0 when tumors had reached a size of about 500 mm^3.\nSimilarly, a dose response of IFN-α as a single agent was performed. […] Therefore, a dose of 1 million units 3 times per week intraperitoneally was chosen to combine with CCI-779 at 25 mg/kg iv once per week. Groups of 10 mice were treated with CCI-779 alone, IFN-α alone, or the combination (Table 1). IFN-α was given on days 1, 3, and 5 and CCI-779 on day 6 of each week for 4 weeks. Dosing began after tumors had reached a size of about 600 mg."}},
  "data": [
    {"molecule": "CO[C@H]1C[C@@H]2CC[C@@H](C)[C@@](O)(O2)C(=O)C(=O)N2CCCC[C@H]2C(=O)O[C@H]([C@H](C)C[C@@H]2CC[C@@H](OC(=O)C(C)(CO)CO)[C@H](OC)C2)CC(=O)[C@H](C)/C=C(\\C)[C@@H](O)[C@@H](OC)C(=O)[C@H](C)C[C@H](C)/C=C/C=C/C=C/1C", "note": "[CCI-779, Rapamycin 42-ester with 3-hydroxy-2-(hydroxymethyl)-2-methylpropionic acid]", "values": [
      {"measurement": "stability of CCI-779 with citric acid", "setting": "[1]", "result": "enhanced the stability"},
      {"measurement": "growth factor (platelet-derived)-induced stimulation of human glioblastoma cell line", "setting": "[2]", "result": "markedly suppressed"},
      {"measurement": "growth of tumor cells in vitro", "setting": "[3]; CNS cancer, leukemia (T-cell), breast, prostate and melanoma lines most sensitive", "result": "inhibit the growth of a number of histologically diverse tumor cells"},
      {"measurement": "cell cycle effect", "setting": "[3]; in vitro", "result": "arrested cells in the G1 phase of the cell cycle"},
      {"measurement": "MTD patients requiring CCI-779 dose reductions in subsequent cycles", "setting": "[4]; at MTD 15 mg CCI-779, 6 MU IFNα", "result": "Approximately 50%"},
      {"measurement": "Grade 34 CCI-779-related adverse events, frequency: AST increase", "setting": "[4]; both, human, in vivo", "result": 8, "unit": "%"},
      {"measurement": "Grade 34 CCI-779-related adverse events, frequency: anemia", "setting": "[4]; both, human, in vivo", "result": 6, "unit": "%"},
      {"measurement": "Grade 34 CCI-779-related adverse events, frequency: asthenia", "setting": "[4]; both, human, in vivo", "result": 13, "unit": "%"},
      {"measurement": "Grade 34 CCI-779-related adverse events, frequency: hyperlipidemia", "setting": "[4]; both, human, in vivo", "result": 15, "unit": "%"},
      {"measurement": "Grade 34 CCI-779-related adverse events, frequency: leukopenia", "setting": "[4]; both, human, in vivo", "result": 25, "unit": "%"},
      {"measurement": "Grade 34 CCI-779-related adverse events, frequency: mucositis", "setting": "[4]; both, human, in vivo", "result": 6, "unit": "%"},
      {"measurement": "Grade 34 CCI-779-related adverse events, frequency: rash", "setting": "[4]; both, human, in vivo", "result": 6, "unit": "%"},
      {"measurement": "Grade 34 CCI-779-related adverse events, frequency: thrombocytopenia", "setting": "[4]; both, human, in vivo", "result": 6, "unit": "%"},
      {"measurement": "CCI-779-related adverse events, frequency: anemia", "setting": "[4]; human, in vivo", "result": 33, "unit": "%"},
      {"measurement": "CCI-779-related adverse events, frequency: anorexia", "setting": "[4]; human, in vivo", "result": 33, "unit": "%"},
      {"measurement": "CCI-779-related adverse events, frequency: asthenia", "setting": "[4]; human, in vivo", "result": 39, "unit": "%"},
      {"measurement": "CCI-779-related adverse events, frequency: chills", "setting": "[4]; human, in vivo", "result": 22, "unit": "%"},
      {"measurement": "CCI-779-related adverse events, frequency: diarrhea", "setting": "[4]; human, in vivo", "result": 28, "unit": "%"},
      {"measurement": "CCI-779-related adverse events, frequency: fever", "setting": "[4]; human, in vivo", "result": 22, "unit": "%"},
      {"measurement": "CCI-779-related adverse events, frequency: hyperlipidemia", "setting": "[4]; human, in vivo", "result": 28, "unit": "%"},
      {"measurement": "CCI-779-related adverse events, frequency: leukopenia", "setting": "[4]; human, in vivo", "result": 22, "unit": "%"},
      {"measurement": "CCI-779-related adverse events, frequency: nausea", "setting": "[4]; human, in vivo", "result": 39, "unit": "%"},
      {"measurement": "CCI-779-related adverse events, frequency: taste perversion", "setting": "[4]; human, in vivo", "result": 22, "unit": "%"},
      {"measurement": "Gr 3-4 CCI-779-related AEs: hyperglycemia, number of pts", "setting": "[4]; human, in vivo", "result": 2, "unit": "pts"},
      {"measurement": "Gr 3-4 CCI-779-related AEs: hyperlipidemia, number of pts", "setting": "[4]; human, in vivo", "result": 4, "unit": "pts"},
      {"measurement": "Gr 3-4 CCI-779-related AEs: leukopenia, number of pts", "setting": "[4]; human, in vivo", "result": 3, "unit": "pts"},
      {"measurement": "patients removed from study due to CCI-779-related toxicity", "setting": "[4]; human, in vivo", "result": "Four"},
      {"measurement": "CCI-779-related adverse events, frequency: mucositis", "setting": "[4]; preliminary results, n=18, CCI-779 5-25 mg IV once weekly with IFN 6 MU sc 3 times weekly", "result": 44, "unit": "%"},
      {"measurement": "CCI-779-related adverse events, frequency: allergic reaction", "setting": "[4]; preliminary results, n=18, with IFN", "result": 22, "unit": "%"},
      {"measurement": "activity in orthotopic glioma model", "setting": "[5]", "result": "active"},
      {"measurement": "activity against human tumor xenografts", "setting": "[5]; gliomas particularly sensitive", "result": "activity against human tumor xenografts of diverse histological types"},
      {"measurement": "inhibition of tumor growth", "setting": "[6]; single agent, 10 mg/kg to 75 mg/kg iv once a week, tumors about 500 mm^3 on day 0, all doses", "result": "30-35%"},
      {"measurement": "tumor regression at three fold higher dose", "setting": "[6]; single agent, 75 mg/kg", "result": "did not induce tumor regression"},
      {"measurement": "effect on tumor growth (in words)", "setting": "[6]; single agent", "result": "retardation of tumor growth without tumor regression"},
      {"measurement": "Tumor mass, Week 0", "setting": "[6]", "result": 589, "unit": "mg"},
      {"measurement": "Tumor mass, % of vehicle control, Week 0", "setting": "[6]", "result": 100, "unit": "%"},
      {"measurement": "Tumor mass, Week 2", "setting": "[6]", "result": 825, "unit": "mg"},
      {"measurement": "Tumor mass, % of vehicle control, Week 2", "setting": "[6]", "result": 80, "unit": "%"},
      {"measurement": "Tumor mass, Week 4", "setting": "[6]", "result": 1382, "unit": "mg"},
      {"measurement": "Tumor mass, % of vehicle control, Week 4", "setting": "[6]", "result": 69, "unit": "%"},
      {"measurement": "Tumor mass, Week 5", "setting": "[6]", "result": 1539, "unit": "mg"},
      {"measurement": "Tumor mass, % of vehicle control, Week 5", "setting": "[6]", "result": 68, "unit": "%"}
    ]},
    {"molecule": "Interferon α [reference compound]", "values": [
      {"measurement": "single agent dose response, effectiveness", "setting": "[6]; 1 million units or 0.5 million units 3 times per week, data not shown", "result": "similarly effective"},
      {"measurement": "effect on tumor growth (in words)", "setting": "[6]; single agent", "result": "retardation of tumor growth without tumor regression"},
      {"measurement": "Tumor mass, Week 0", "setting": "[6]", "result": 586, "unit": "mg"},
      {"measurement": "Tumor mass, % of vehicle control, Week 0", "setting": "[6]", "result": 100, "unit": "%"},
      {"measurement": "Tumor mass, Week 2", "setting": "[6]", "result": 682, "unit": "mg"},
      {"measurement": "Tumor mass, % of vehicle control, Week 2", "setting": "[6]", "result": 66, "unit": "%"},
      {"measurement": "Tumor mass, Week 4", "setting": "[6]", "result": 957, "unit": "mg"},
      {"measurement": "Tumor mass, % of vehicle control, Week 4", "setting": "[6]", "result": 48, "unit": "%"},
      {"measurement": "Tumor mass, Week 5", "setting": "[6]", "result": 1280, "unit": "mg"},
      {"measurement": "Tumor mass, % of vehicle control, Week 5", "setting": "[6]", "result": 57, "unit": "%"}
    ]}
  ]
}
